Results from US20170198196A1, “METHODS FOR CONTROLLING SOURING IN ENGINEERED SYSTEMS” (The Regents of the University of California, priority 2014, published 2017).
Entries after “also recorded” stand apart in the source; their conditions may differ. Read-outs that look alike come from different tables or passages of the source.

Legend:
[1] = system: marine enrichment cultures; assay: Inhibition of sulfide production (Cline assay) in marine enrichment cultures; assay type: cell-based; conditions: for IC50: read-out: IC50 Seawater Sulfide Production
[2] = system: nitrate reducing bacteria; conditions: molybdate treated cell suspensions; cited from earlier work
[3] = system: Desulfovibrio cell suspensions; conditions: molybdate treated, after 60 minutes; cited from earlier work
[4] = system: marine enrichment cultures; assay: organism not typed; assay type: cell-based; conditions: read-out: IC50 Seawater Growth
[5] = marine enrichment cultures, SI>2 classified as selective

Molecule | selectivity and potency as inhibitor of sulfidogenesis versus growth, in words [1] | other results
N.NS(=O)(=O)O [ammonium sulfamate] | very weak and nonspecific inhibitors | 
[O-][Cl+2]([O-])O [chlorate] | selective inhibitors of sulfidogenesis | 
CS(C)(=O)=O [dimethyl sulfone] |  | selectivity and potency as inhibitor of sulfidogenesis versus growth, in words [1, 5]: very weak and nonspecific inhibitors
[O]=[Mo](=[O])([O-])[O-] [molybdate] | specific inhibitors of sulfide production | selectivity index (SI = growth IC50/sulfide IC50) [1]: 100; intracellular ATP relative to controls [2]: ~80%; intracellular ATP relative to controls [3]: ~10%
O=[N+]([O-])O [nitrate] | selective inhibitors | Growth/Sulfide Ratio [1]: 41.3; fold higher IC50 than MFP [1]: ~8 fold; IC50 [1]: 6.34 mM
O=NO [nitrite] | selective inhibitors | selectivity index (SI = growth IC50/sulfide IC50) [1]: ≈ 2
[O-][Cl+3]([O-])([O-])O [perchlorate] | selective inhibitors of sulfidogenesis | Growth/Sulfide Ratio [1]: 11.19; IC50 [1]: 3.25 mM; IC50 [4]: 36.3 mM
[O-][I+3]([O-])([O-])O [periodate] |  | selectivity and potency as inhibitor of sulfidogenesis versus growth, in words [1, 5]: nonspecific, but potent inhibitors of all growth
O=[Se](=O)(O)O [selenate] | very potent and selective inhibitors of sulfate reduction | 
O=[Se](O)O [selenite] | very potent and selective inhibitors of sulfate reduction | 
O=S(=O)(O)O [sulfate] | only inhibited growth and sulfidogenesis at high millimolar concentrations | 
O=S(O)O [sulfite] | only inhibited growth and sulfidogenesis at high millimolar concentrations | 
O=[Te](=O)(O)O [tellurate] | very potent and selective inhibitors of sulfate reduction | 
O=[Te](O)O [tellurite] | very potent and selective inhibitors of sulfate reduction | 
OP(O)(O)=S [thiophosphate] | weak inhibitors and nonselective; also recorded: very weak, nonselective inhibitors of sulfidogenesis | 
[O]=[W](=[O])([O-])[O-] [tungstate] | specific inhibitors of sulfide production | selectivity index (SI = growth IC50/sulfide IC50) [1]: 589
[O]=[V]([O-])([O-])[O-] [vanadate] | specific inhibitors of sulfide production | 
arsenate | not selective | 
methanesulfonate | very weak and nonspecific inhibitors | 
phosphite | weak inhibitors and nonselective; also recorded: very weak, nonselective inhibitors of sulfidogenesis | 
